Data reported in patent US9937183B2, “Antimicrobial compounds and methods of making and using the same” (priority 2013, dated 2018).
Converted amounts (≈) assume the structure as drawn. Like-named read-outs stand apart in the source and are kept apart here.

How the values were obtained:
Format in all cases: cell-based
E. coli ATCC25922 = experiment: MIC, microtiter-based liquid assay (CLSI); details: Escherichia coli
E. coli 1705878 = experiment: MIC, microtiter-based liquid assay (CLSI); details: Escherichia coli, MDR strain
E. coli MG1655 parent = experiment: MIC, microtiter-based liquid assay (CLSI); details: Escherichia coli
E. coli CAG12184 TolC = experiment: MIC, microtiter-based liquid assay (CLSI); details: Escherichia coli, CAG12184TOLC
[1] = tested on: S. pneumoniae 02J1175 Mef(A); experiment: MIC, microtiter-based liquid assay (CLSI); details: Streptococcus pneumoniae
S. aureus 11540 MRSA = experiment: MIC, microtiter-based liquid assay (CLSI); details: Staphylococcus aureus
K. pneumoniae 1705949 = experiment: MIC, microtiter-based liquid assay (CLSI); details: Klebsiella pneumoniae, MDR strain
K. pneumoniae 1705966 = experiment: MIC, microtiter-based liquid assay (CLSI); details: Klebsiella pneumoniae
A. baumannii 1705936 = experiment: MIC, microtiter-based liquid assay (CLSI); details: Acinetobacter baumannii, MDR strain
A. baumannii 1705943 = experiment: MIC, microtiter-based liquid assay (CLSI); details: Acinetobacter baumannii
P. aeruginosa ATCC27853 = experiment: MIC, microtiter-based liquid assay (CLSI); details: Pseudomonas aeruginosa
P. aeruginosa 1705886 = experiment: MIC, microtiter-based liquid assay (CLSI); details: Pseudomonas aeruginosa
P. aeruginosa 1705904 = experiment: MIC, microtiter-based liquid assay (CLSI); details: Pseudomonas aeruginosa, MDR strain
[2] = tested on: E. faecium A6349 VanA + LNZ-R; experiment: MIC, microtiter-based liquid assay (CLSI); details: Enterococcus faecium
B. anthracis = experiment: microbe, parasite or virus in culture; details: Bacillus anthracis; for MIC50: read-out: B. anthracis MIC50; for MIC90: read-out: B. anthracis MIC90; for MIC: read-out: B. anthracis MIC Range
Y. pestis = experiment: microbe, parasite or virus in culture; details: for MIC50 / MIC90 / MIC: Yersinia pestis; for MIC50: read-out: Y. pestis MIC50; for MIC90: read-out: Y. pestis MIC90; for MIC: read-out: Y. pestis MIC Range
B. mallei = experiment: microbe, parasite or virus in culture; details: Burkholderia mallei; for MIC50: read-out: B. mallei MIC50; for MIC90: read-out: B. mallei MIC90; for MIC: read-out: B. mallei MIC Range
F. tularensis = experiment: microbe, parasite or virus in culture; details: Francisella tularensis; for MIC50: read-out: F. tularensis MIC50; for MIC90: read-out: F. tularensis MIC90; for MIC: read-out: F. tularensis MIC Range
B. pseudomallei = experiment: microbe, parasite or virus in culture; details: Burkholderia pseudomallei; for MIC50: read-out: B. pseudomallei MIC50; for MIC90: read-out: B. pseudomallei MIC90; for MIC: read-out: B. pseudomallei MIC Range
[3] = ATCC25922, read-out: MIC E. coli ATCC25922 + 50% HS
[4] = ATCC25922, read-out: MIC E. coli ATCC25922

## C[C@H](NCCCNC(=N)N)c1ccc(-n2cc3cc(-c4cc(CCC5(CN)CC5)cc(Cl)c4F)[nH]c3nc2=O)cc1 [Compound 4]
E. coli ATCC25922; [3]
  MIC: 0.5 µg/mL
E. coli ATCC25922; [4]
  MIC: 0.125 µg/mL (≈ 0.216 µM)
E. coli 1705878
  MIC: 0.5 µg/mL (≈ 0.863 µM)
E. coli MG1655 parent
  MIC: 0.25 µg/mL (≈ 0.432 µM)
E. coli CAG12184 TolC
  MIC: 0.25 µg/mL (≈ 0.432 µM)
[1]
  MIC: 0.5 µg/mL (≈ 0.863 µM)
S. aureus 11540 MRSA
  MIC: 0.25 µg/mL (≈ 0.432 µM)
K. pneumoniae 1705949
  MIC: 1 µg/mL (≈ 1.73 µM)
K. pneumoniae 1705966
  MIC: 0.25 µg/mL (≈ 0.432 µM)
A. baumannii 1705936
  MIC: 4 µg/mL (≈ 6.91 µM)
A. baumannii 1705943
  MIC: 0.25 µg/mL (≈ 0.432 µM)
P. aeruginosa ATCC27853
  MIC: 4 µg/mL (≈ 6.91 µM)
P. aeruginosa 1705886
  MIC: 2 µg/mL (≈ 3.45 µM)
P. aeruginosa 1705904
  MIC: 4 µg/mL (≈ 6.91 µM)
[2]
  MIC: 4 µg/mL
B. anthracis
  MIC50: 0.5 µg/mL (≈ 0.863 µM)
  MIC90: 0.5 µg/mL (≈ 0.863 µM)
  MIC: 0.06 to 4 µg/mL (≈ 0.104 to 6.91 µM)
Y. pestis
  MIC50: 0.25 µg/mL (≈ 0.432 µM)
  MIC90: 0.25 µg/mL (≈ 0.432 µM)
  MIC: 0.03 to 0.5 µg/mL (≈ 0.0518 to 0.863 µM)
B. mallei
  MIC50: ≤ 0.03 µg/mL
  MIC90: 0.12 µg/mL (≈ 0.207 µM)
  MIC: 0.03 to 0.5 µg/mL (≈ 0.0518 to 0.863 µM)
F. tularensis
  MIC50: ≤ 0.03 µg/mL
  MIC90: ≤ 0.03 µg/mL
  MIC: 0.03 to 1 µg/mL (≈ 0.0518 to 1.73 µM)
B. pseudomallei
  MIC50: 2 µg/mL (≈ 3.45 µM)
  MIC90: 4 µg/mL (≈ 6.91 µM)
  MIC: 0.5 to 8 µg/mL (≈ 0.863 to 13.8 µM)

## CC(C)c1cc(CCC[C@H](C)N)cc(-c2cc3cn(-c4ccc([C@H](C)NCCCNC(=N)N)cc4)c(=O)nc3[nH]2)c1F [Compound 7]
E. coli ATCC25922; [3]
  MIC: 1 µg/mL
E. coli ATCC25922; [4]
  MIC: 0.5 µg/mL (≈ 0.87 µM)
E. coli 1705878
  MIC: 1 µg/mL (≈ 1.74 µM)
E. coli MG1655 parent
  MIC: 0.5 µg/mL (≈ 0.87 µM)
E. coli CAG12184 TolC
  MIC: 0.5 µg/mL (≈ 0.87 µM)
[1]
  MIC: 0.25 µg/mL (≈ 0.435 µM)
S. aureus 11540 MRSA
  MIC: 0.5 µg/mL (≈ 0.87 µM)
K. pneumoniae 1705949
  MIC: 1 µg/mL (≈ 1.74 µM)
K. pneumoniae 1705966
  MIC: 0.5 µg/mL (≈ 0.87 µM)
A. baumannii 1705936
  MIC: 4 µg/mL (≈ 6.96 µM)
A. baumannii 1705943
  MIC: 0.5 µg/mL (≈ 0.87 µM)
P. aeruginosa ATCC27853
  MIC: 8 µg/mL (≈ 13.9 µM)
P. aeruginosa 1705886
  MIC: 4 µg/mL (≈ 6.96 µM)
[2]
  MIC: 2 µg/mL
B. anthracis
  MIC50: 0.12 µg/mL (≈ 0.209 µM)
  MIC90: 0.25 µg/mL (≈ 0.435 µM)
  MIC: 0.03 to 0.5 µg/mL (≈ 0.0522 to 0.87 µM)
Y. pestis
  MIC50: 0.25 µg/mL (≈ 0.435 µM)
  MIC90: 0.5 µg/mL (≈ 0.87 µM)
  MIC: 0.06 to 1 µg/mL (≈ 0.104 to 1.74 µM)
B. mallei
  MIC50: 0.06 µg/mL (≈ 0.104 µM)
  MIC90: 0.12 µg/mL (≈ 0.209 µM)
  MIC: 0.03 to 0.5 µg/mL (≈ 0.0522 to 0.87 µM)
F. tularensis
  MIC50: 0.06 µg/mL (≈ 0.104 µM)
  MIC90: 0.12 µg/mL (≈ 0.209 µM)
  MIC: 0.03 to 0.5 µg/mL (≈ 0.0522 to 0.87 µM)
B. pseudomallei
  MIC50: 2 µg/mL (≈ 3.48 µM)
  MIC90: 4 µg/mL (≈ 6.96 µM)
  MIC: 1 to 8 µg/mL (≈ 1.74 to 13.9 µM)

## C[C@H](NCCCNC(=N)N)c1ccc(-n2cc3cc(-c4cc(C5CCC(CN)CC5)cc(Cl)c4F)[nH]c3nc2=O)cc1 (stereo partly shown) [Compound 8]
E. coli ATCC25922; [3]
  MIC: 2 µg/mL
E. coli ATCC25922; [4]
  MIC: 0.5 µg/mL (≈ 0.843 µM)
E. coli 1705878
  MIC: 1 µg/mL (≈ 1.69 µM)
E. coli MG1655 parent
  MIC: 0.25 µg/mL (≈ 0.421 µM)
E. coli CAG12184 TolC
  MIC: 0.25 µg/mL (≈ 0.421 µM)
[1]
  MIC: 0.5 µg/mL (≈ 0.843 µM)
S. aureus 11540 MRSA
  MIC: 0.25 µg/mL (≈ 0.421 µM)
K. pneumoniae 1705949
  MIC: 2 µg/mL (≈ 3.37 µM)
K. pneumoniae 1705966
  MIC: 1 µg/mL (≈ 1.69 µM)
A. baumannii 1705936
  MIC: 1 µg/mL (≈ 1.69 µM)
A. baumannii 1705943
  MIC: 0.5 µg/mL (≈ 0.843 µM)
P. aeruginosa ATCC27853
  MIC: 4 µg/mL (≈ 6.74 µM)
P. aeruginosa 1705886
  MIC: 4 µg/mL (≈ 6.74 µM)
P. aeruginosa 1705904
  MIC: 4 µg/mL (≈ 6.74 µM)
[2]
  MIC: 4 µg/mL
Y. pestis
  Y. pestis MIC50: 0.06 µg/mL
  MIC50: 0.12 µg/mL (≈ 0.202 µM)
  MIC: 0.03 to 0.5 µg/mL (≈ 0.0506 to 0.843 µM)
B. mallei
  MIC50: ≤ 0.03 µg/mL
  MIC90: 0.12 µg/mL (≈ 0.202 µM)
  MIC: 0.03 to 0.25 µg/mL (≈ 0.0506 to 0.421 µM)
F. tularensis
  MIC50: 0.06 µg/mL (≈ 0.101 µM)
  MIC: 0.03 to 2 µg/mL (≈ 0.0506 to 3.37 µM)

## C=CC[C@H](NCCCNC(=N)N)c1ccc(-n2cc3cc(-c4cc(CCC[C@H](C)N)cc(Cl)c4F)[nH]c3nc2=O)cc1 [Compound 9]
E. coli ATCC25922; [3]
  MIC: 0.5 µg/mL
E. coli ATCC25922; [4]
  MIC: 0.25 µg/mL (≈ 0.421 µM)
E. coli 1705878
  MIC: 0.5 µg/mL (≈ 0.843 µM)
E. coli MG1655 parent
  MIC: 0.25 µg/mL (≈ 0.421 µM)
E. coli CAG12184 TolC
  MIC: 0.25 µg/mL (≈ 0.421 µM)
[1]
  MIC: 0.25 µg/mL (≈ 0.421 µM)
S. aureus 11540 MRSA
  MIC: 0.25 µg/mL (≈ 0.421 µM)
K. pneumoniae 1705949
  MIC: 0.5 µg/mL (≈ 0.843 µM)
K. pneumoniae 1705966
  MIC: 0.25 µg/mL (≈ 0.421 µM)
A. baumannii 1705936
  MIC: 0.5 µg/mL (≈ 0.843 µM)
A. baumannii 1705943
  MIC: 0.25 µg/mL (≈ 0.421 µM)
P. aeruginosa ATCC27853
  MIC: 2 µg/mL (≈ 3.37 µM)
P. aeruginosa 1705886
  MIC: 2 µg/mL (≈ 3.37 µM)
P. aeruginosa 1705904
  MIC: 4 µg/mL (≈ 6.74 µM)
[2]
  MIC: 0.5 µg/mL

## CN(C)c1cc(NC(=O)CNC(C)(C)C)c(O)c2c1C[C@H]1C[C@H]3[C@H](N(C)C)C(O)=C(C(N)=O)C(=O)[C@@]3(O)C(O)=C1C2=O [Tigecycline, reference compound]
E. coli ATCC25922; [3]
  MIC: 0.25 µg/mL
E. coli ATCC25922; [4]
  MIC: 0.125 µg/mL (≈ 0.213 µM)
E. coli 1705878
  MIC: 0.5 µg/mL (≈ 0.854 µM)
E. coli MG1655 parent
  MIC: 0.25 µg/mL (≈ 0.427 µM)
E. coli CAG12184 TolC
  MIC: 0.125 µg/mL (≈ 0.213 µM)
[1]
  MIC: ≤ 0.06 µg/mL
S. aureus 11540 MRSA
  MIC: 0.25 µg/mL (≈ 0.427 µM)
K. pneumoniae 1705949
  MIC: 1 µg/mL (≈ 1.71 µM)
K. pneumoniae 1705966
  MIC: 0.5 µg/mL (≈ 0.854 µM)
A. baumannii 1705936
  MIC: 2 µg/mL (≈ 3.41 µM)
A. baumannii 1705943
  MIC: 0.125 µg/mL (≈ 0.213 µM)
P. aeruginosa ATCC27853
  MIC: 8 µg/mL (≈ 13.7 µM)
P. aeruginosa 1705886
  MIC: 8 µg/mL (≈ 13.7 µM)
P. aeruginosa 1705904
  MIC: > 32 µg/mL
[2]
  MIC: ≤ 0.06 µg/mL

## NC[C@H]1O[C@H](O[C@H]2[C@H](O)[C@@H](O[C@H]3O[C@H](CO)[C@@H](O)[C@H](N)[C@H]3O)[C@H](N)C[C@@H]2N)[C@H](N)C[C@@H]1O [Tobramycin, reference compound]
E. coli ATCC25922; [3]
  MIC: 1 µg/mL
E. coli ATCC25922; [4]
  MIC: 1 µg/mL (≈ 2.14 µM)
E. coli 1705878
  MIC: 64 µg/mL (≈ 137 µM)
E. coli MG1655 parent
  MIC: 1 µg/mL (≈ 2.14 µM)
E. coli CAG12184 TolC
  MIC: 1 µg/mL (≈ 2.14 µM)
[1]
  MIC: 16 µg/mL (≈ 34.2 µM)
S. aureus 11540 MRSA
  MIC: 0.5 µg/mL (≈ 1.07 µM)
K. pneumoniae 1705949
  MIC: > 128 µg/mL
K. pneumoniae 1705966
  MIC: ≤ 0.25 µg/mL
A. baumannii 1705936
  MIC: 8 µg/mL (≈ 17.1 µM)
A. baumannii 1705943
  MIC: ≤ 0.25 µg/mL
P. aeruginosa ATCC27853
  MIC: 0.5 µg/mL (≈ 1.07 µM)
P. aeruginosa 1705886
  MIC: 0.5 µg/mL (≈ 1.07 µM)
P. aeruginosa 1705904
  MIC: 128 µg/mL (≈ 274 µM)
[2]
  MIC: > 128 µg/mL
